pEC50: −log10 of the molar value. Numbered stars: 1 amine (or outer) side, 2 acyl side, 3 side chain; on linkers, the order of the positions; unused ones are H or OH. Square brackets hold non-standard residues; d marks the D form. Side chains are listed from the residue outwards. Peptide text beside a SMILES is read from it. * marks the point of attachment. C18 diacid = O=C(O)CCCCCCCCCCCCCCCCC(=O)*; γGlu = O=C(O)[C@H](CCC(=O)[*:2])N[*:1]; AEEA = NCCOCCOCC(=O)O; Ac3c = NC1(C(=O)O)CC1; Aib = CC(C)(N)C(=O)O

Four compounds from patent US9474790B2, “Stable, protracted GLP-1/glucagon receptor co-agonists for medical use” (Novo Nordisk A/S, priority 2013, dated 2016) can be followed below.

For one data set, the target named is T1, human GLP-1 receptor (Homo sapiens, UniProt P43220).
T1 construct: expressed in transfected cells; host or cells: BHK cells (parent BHKTS13), clone FCW467-12A/KZ10-1, with CRE luciferase
Briefly: GLP-1 receptor potency, CRE luciferase reporter gene assay in BHK cells. Format: cell-based. The following applies: BHK cells expressing human GLP-1 receptor, read-out: EC50 GLP-1R. The method, then: The purpose of this example was to test the potency, of the glucagon derivatives of the invention, in vitro. The in vitro potency is the measure of human GLP-1 receptor or glucagon receptor activation, respectively, in a whole cell assay.
In vitro potency was determined by measuring the response of human GLP-1 or glucagon receptor, respectively, in a reporter gene assay. The assay was performed in a stably transfected BHK cell line that expresses either the human GLP-1 receptor or the human glucagon receptor and contains the DNA for the cAMP response element (CRE) coupled to a promoter and the gene for firefly luciferase (CRE luciferase). […] When assay incubation was completed, the luciferase substrate (luciferin) was added and the enzyme converted luciferin to oxyluciferin and produces bioluminescence. The luminescence was measured as the readout for the assay.
The cells used in this assay (clone FCW467-12A/KZ10-1) were BHK cells with BHKTS13 as a parent cell line. The cells were derived from a clone (FCW467-12A) that expresses the human GLP-1 receptor and were established by further transfection with
CRE luciferase to obtain the current clone.
The cells were cultured at 5% CO2 in DMEM medium with 10% FBS, 1×GlutaMAX, 1 mg/ml G418, 240 nM MTX (methotrexate) and 1% pen/strep (penicillin/streptomycin). They were aliquoted and stored in liquid nitrogen. Before each assay, an aliquot was taken up and washed three times in PBS before being suspended at the desired concentration in assay medium. For 96-well plates the suspension was made to give a final concentration of 5×10EE3 cells/well.
The following chemicals were used in the assay: Pluronic F-68 (10%) (Gibco 2404), ovalbumin (Sigma A5503), DMEM w/o phenol red (Gibco 11880-028), 1 M Hepes (Gibco 15630), Glutamax 100× (Gibco 35050) and steadylite plus (PerkinElmer 6016757).
Assay Medium consisted of DMEM w/o phenol red, 10 mM Hepes, lx GlutaMAX, 2% Ovalbumin and 0.2% Pluronic F-68.
Cell stocks were thawed in a 37° C. water bath. Cells were washed three times in PBS. The cells were counted and adjusted to 5×10EE3 cells/50 μl (1×10EE5 cells/ml) in Assay Medium. A 50 μl aliquot of cells was transferred to each well in the assay plate.
Stocks of the test compounds and reference compounds were diluted to a concentration of […] in Assay Medium. Compounds were diluted 10-fold to give the following concentrations: 2×10EE-6 M, 2×10EE-7 M, 2×10EE-8 M; 2×10EE-9 M, 2×10EE-10 M, 2×10EE-11 M, 2×10EE-12 M and 2×10EE-13 M. For each compound a blank assay medium control was also included.
A 50 μl aliquot of compound or blank was transferred from the dilution plate to the assay plate. Compounds were tested at the following final concentrations: 1×10EE-6 M, 1×10EE-7 M, 1×10EE-8 M; 1×10EE-9 M, 1×10EE-10 M, 1×10EE-11 M and 1×10EE-12 M and 1×10EE-13 M.
The assay plate was incubated for 3 h in a 5% CO2 incubator at 37° C. The assay plate was removed from the incubator and allowed to stand at room temperature for 15 min. A 100 μl aliquot of steadylite plus reagent was added to each well of the assay plate (reagent is light sensitive). Each assay plate was covered with aluminum foil to protect it from light and shaken for 30 min at room temperature. Each assay plate was read in a Perkin Elmer TopCount NXT instrument.
The data from the TopCount instrument was transferred to GraphPad Prism software. The software performed a non-linear regression (log(agonist) vs response-Variable slope (four parameter)). EC50 values were calculated by the software and reported in pM.

The nature of data set [1]: Thioflavin T (ThT) fibrillation assay for physical stability. Format: physicochemical. The following applies: 250 μM in 10 mM HEPES buffer, pH 7.5, 37° C., shaking 960 rpm. A digest of the protocol: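 Peptide at 250 μM in 10 mM HEPES pH 7.5 with 1 μM ThT, at 37° C with 960 rpm orbital shaking. Fluorescence (ex 444/em 485 nm) read every 20 min after 10 min pre-incubation; sigmoidal fit gives lag time (t0−2τ) and kapp (1/τ). Recovery is RP-HPLC peptide in the centrifuged, 0.22 μm-filtered supernatant as % of initial.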

T1 sequence (P43220 24-463): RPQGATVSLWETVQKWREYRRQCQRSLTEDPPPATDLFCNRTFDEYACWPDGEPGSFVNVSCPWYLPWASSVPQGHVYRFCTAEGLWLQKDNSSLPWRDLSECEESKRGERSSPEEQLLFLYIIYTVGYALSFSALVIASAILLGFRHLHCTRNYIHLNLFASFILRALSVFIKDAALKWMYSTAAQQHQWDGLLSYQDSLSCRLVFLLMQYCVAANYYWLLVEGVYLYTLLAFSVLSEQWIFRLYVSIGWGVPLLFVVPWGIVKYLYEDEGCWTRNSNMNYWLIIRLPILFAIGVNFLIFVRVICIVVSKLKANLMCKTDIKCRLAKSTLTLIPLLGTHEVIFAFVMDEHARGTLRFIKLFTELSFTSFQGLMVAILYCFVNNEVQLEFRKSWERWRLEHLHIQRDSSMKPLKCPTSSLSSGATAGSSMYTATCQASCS

Regarding `CC(C)C[C@H](NC(=O)[C@H](CC(C)C)NC(=O)[C@H](Cc1c[nH]c2ccccc12)NC(=O)[C@H](CCC(N)=O)NC(=O)[C@@H](NC(=O)[C@H](Cc1ccccc1)NC(=O)[C@H](CC(=O)O)NC(=O)[C@H](CCCCN)NC(=O)[C@H](C)NC(=O)[C@H](CCCNC(=N)N)NC(=O)[C@H](CCCNC(=N)N)NC(=O)[C@H](CCC(=O)O)NC(=O)[C@H](CC(=O)O)NC(=O)[C@H](CC(C)C)NC(=O)[C@H](Cc1ccc(O)cc1)NC(=O)[C@H](CCCCN)NC(=O)[C@H](CO)NC(=O)[C@H](CC(C)C)NC(=O)[C@H](CC(=O)O)NC(=O)[C@H](CO)NC(=O)[C@@H](NC(=O)[C@H](Cc1ccccc1)NC(=O)[C@@H](NC(=O)CNC(=O)[C@H](CCC(N)=O)NC(=O)C(C)(C)NC(=O)[C@@H](N)Cc1c[nH]cn1)[C@@H](C)O)[C@@H](C)O)C(C)C)C(=O)N[C@@H](CO)C(=O)N[C@@H](CCCCNC(=O)CC[C@H](NC(=O)CC[C@H](NC(=O)COCCOCCNC(=O)COCCOCCNC(=O)CC[C@H](NC(=O)CCCCCCCCCCCCCCCCC(=O)O)C(=O)O)C(=O)O)C(=O)O)C(N)=O` [Example 13, N^ε29-[(4S)-4-carboxy-4-[[(4S)-4-carboxy-4-[[2-[2-[2-[[2-[2-[2-[[(4S)-4-carboxy-4-(17-carboxyheptadecanoylamino)butanoyl]amino]ethoxy]ethoxy]acetyl]amino]ethoxy]ethoxy]acetyl]amino]butanoyl]amino]butanoyl]-[Aib2,Leu10,Glu16,Lys20,Leu27,Ser28,Lys29]-Glucagon amide] (H-H[Aib]QGTFTSDLSKYLDERRAKDFVQWLLSK([γGlu-γGlu-AEEA-AEEA-γGlu-C18 diacid])-NH2; N-terminus assumed), the pEC50 (usually the EC50 on a negative log10 scale, so that one unit is a factor of ten) on human GLP-1 receptor was 11.22. Turning to `CC(C)C[C@H](NC(=O)[C@H](CC(C)C)NC(=O)[C@H](Cc1c[nH]c2ccccc12)NC(=O)[C@H](CCCNC(=N)N)NC(=O)[C@@H](NC(=O)[C@H](Cc1ccccc1)NC(=O)[C@H](CC(=O)O)NC(=O)[C@H](CCC(N)=O)NC(=O)[C@H](C)NC(=O)[C@H](CCCNC(=N)N)NC(=O)[C@H](CCCNC(=N)N)NC(=O)[C@@H](NC(=O)[C@H](CC(=O)O)NC(=O)[C@H](CC(C)C)NC(=O)[C@H](Cc1ccc(O)cc1)NC(=O)[C@H](CCCCN)NC(=O)[C@H](CO)NC(=O)[C@H](CC(C)C)NC(=O)[C@H](CC(=O)O)NC(=O)[C@H](CO)NC(=O)[C@@H](NC(=O)[C@H](Cc1ccccc1)NC(=O)[C@@H](NC(=O)CNC(=O)[C@H](CCC(N)=O)NC(=O)C(C)(C)NC(=O)[C@@H](N)Cc1c[nH]cn1)[C@@H](C)O)[C@@H](C)O)[C@@H](C)O)C(C)C)C(=O)N[C@@H](CO)C(=O)N[C@@H](CCCCNC(=O)CC[C@H](NC(=O)CC[C@H](NC(=O)COCCOCCNC(=O)COCCOCCNC(=O)CC[C@H](NC(=O)CCCCCCCCCCCCCCCCC(=O)O)C(=O)O)C(=O)O)C(=O)O)C(N)=O` [Example 15, N^ε29-[(4S)-4-carboxy-4-[[(4S)-4-carboxy-4-[[2-[2-[2-[[2-[2-[2-[[(4S)-4-carboxy-4-(17-carboxyheptadecanoylamino)butanoyl]amino]ethoxy]ethoxy]acetyl]amino]ethoxy]ethoxy]acetyl]amino]butanoyl]amino]butanoyl]-[Aib2,Leu10,Thr16,Arg24,Leu27,Ser28,Lys29]-Glucagon amide] (H-H[Aib]QGTFTSDLSKYLDTRRAQDFVRWLLSK([γGlu-γGlu-AEEA-AEEA-γGlu-C18 diacid])-NH2; N-terminus assumed), the negative-log EC50 (pEC50) on human GLP-1 receptor is 10.70. In the case of `CC(C)C[C@H](NC(=O)[C@H](Cc1ccc(O)cc1)NC(=O)[C@H](CCCCN)NC(=O)[C@H](CO)NC(=O)[C@H](CC(C)C)NC(=O)[C@H](CC(=O)O)NC(=O)[C@H](CO)NC(=O)[C@@H](NC(=O)[C@H](Cc1ccccc1)NC(=O)[C@@H](NC(=O)CNC(=O)[C@H](CCC(N)=O)NC(=O)C1(NC(=O)[C@@H](N)Cc2c[nH]cn2)CC1)[C@@H](C)O)[C@@H](C)O)C(=O)N[C@@H](CCC(=O)O)C(=O)N[C@@H](CO)C(=O)N[C@@H](CCCNC(=N)N)C(=O)N[C@@H](CCCNC(=N)N)C(=O)N[C@@H](C)C(=O)N[C@@H](CCCNC(=N)N)C(=O)N[C@@H](CCC(=O)O)C(=O)N[C@@H](Cc1ccccc1)C(=O)N[C@H](C(=O)N[C@@H](CCC(N)=O)C(=O)N[C@@H](Cc1c[nH]c2ccccc12)C(=O)N[C@@H](CC(C)C)C(=O)N[C@@H](CC(C)C)C(=O)N[C@@H](CCCCNC(=O)CC[C@H](NC(=O)CC[C@H](NC(=O)COCCOCCNC(=O)COCCOCCNC(=O)CC[C@H](NC(=O)CCCCCCCCCCCCCCCCC(=O)O)C(=O)O)C(=O)O)C(=O)O)C(=O)N[C@H](C(N)=O)[C@@H](C)O)C(C)C` [Example 50, N^ε28-[(4S)-4-carboxy-4-[[(4S)-4-carboxy-4-[[2-[2-[2-[[2-[2-[2-[[(4S)-4-carboxy-4-(17-carboxyheptadecanoylamino)butanoyl]amino]ethoxy]ethoxy]acetyl]amino]ethoxy]ethoxy]acetyl]amino]butanoyl]amino]butanoyl]-[Acpr2,Leu10,Glu15,Arg20,Glu21,Leu27,Lys28]-Glucagon amide] (H-H[Ac3c]QGTFTSDLSKYLESRRAREFVQWLLK([γGlu-γGlu-AEEA-AEEA-γGlu-C18 diacid])T-NH2; N-terminus assumed), the pEC50 on human GLP-1 receptor is 10.96. This compound also returned a THT assay Lag time (Ex. 76) in data set [1] of 28 h. On the same counts, the results for `CC(C)C[C@H](NC(=O)[C@H](CC(=O)O)NC(=O)[C@H](CC(C)C)NC(=O)[C@H](Cc1ccc(O)cc1)NC(=O)[C@H](CCCCN)NC(=O)[C@H](CO)NC(=O)[C@H](CC(C)C)NC(=O)[C@H](CC(=O)O)NC(=O)[C@H](CO)NC(=O)[C@@H](NC(=O)[C@H](Cc1ccccc1)NC(=O)[C@@H](NC(=O)CNC(=O)[C@H](CCC(N)=O)NC(=O)C(C)(C)NC(=O)[C@@H](N)Cc1c[nH]cn1)[C@@H](C)O)[C@@H](C)O)C(=O)N[C@@H](CCCNC(=N)N)C(=O)N[C@@H](CCCNC(=N)N)C(=O)N[C@@H](C)C(=O)N[C@@H](CCC(N)=O)C(=O)N[C@@H](CC(=O)O)C(=O)N[C@@H](Cc1ccccc1)C(=O)N[C@H](C(=O)N[C@@H](CCC(N)=O)C(=O)N[C@@H](Cc1c[nH]c2ccccc12)C(=O)N[C@@H](CC(C)C)C(=O)N[C@@H](CC(C)C)C(=O)N[C@@H](CCCCNC(=O)CC[C@H](NC(=O)CC[C@H](NC(=O)[C@H](CO)NC(=O)[C@H](CCC(=O)O)NC(=O)[C@H](CO)NC(=O)CC[C@H](NC(=O)CC[C@H](NC(=O)CCCCCCCCCCCCCCCCC(=O)O)C(=O)O)C(=O)O)C(=O)O)C(=O)O)C(=O)N[C@H](C(N)=O)[C@@H](C)O)C(C)C` [Example 53, N^ε28-[(4S)-4-carboxy-4-[[(4S)-4-carboxy-4-[[(2S)-2-[[(2S)-4-carboxy-2-[[(2S)-2-[[(4S)-4-carboxy-4-[[(4S)-4-carboxy-4-(17-carboxyheptadecanoylamino)butanoyl]amino]butanoyl]amino]-3-hydroxypropanoyl]amino]butanoyl]amino]-3-hydroxypropanoyl]amino]butanoyl]amino]butanoyl]-[Aib2,Leu10,Leu16,Leu27,Lys28]-Glucagon amide] (H-H[Aib]QGTFTSDLSKYLDLRRAQDFVQWLLK([γGlu-γGlu-Ser-Glu-Ser-γGlu-γGlu-C18 diacid])T-NH2; N-terminus assumed) are 10.96 and 45 h.
